Measurements: patent US20260285850A1, “SUBSTITUTED OXAZOLIDINONES AND IMIDAZOLINONES AS HERBICIDES” (FMC CORPORATION, priority 2023, published 2026)

How the values were obtained:
Format in all cases: in vivo
[1] = test system: barnyardgrass (Echinochloa crus-galli); experiment: Test A preemergence soil spray, visual injury rating 0-100; conditions: 10 days
Outline: (§1)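 Plants were grown in a loam soil-sand blend and treated with test chemical in a non-phytotoxic solvent mixture containing surfactant, either sprayed on soil preemergence or applied postemergence to 2-10 cm plants. After 10 days in a greenhouse, injury was scored visually against untreated controls, 0 meaning no effect and 100 complete control.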

[2] = test system: blackgrass (Alopecurus myosuroides); experiment: as above; conditions: 10 days
Outline: as §1

[3] = test system: corn (Zea mays); experiment: as above; conditions: 10 days
Outline: as §1

[4] = test system: green foxtail (Setaria viridis); experiment: as above; conditions: 10 days
Outline: as §1

[5] = test system: kochia (Bassia scoparia); experiment: as above; conditions: 10 days
Outline: as §1

[6] = test system: oat, wild (wild oat, Avena fatua); experiment: as above; conditions: 10 days
Outline: as §1

[7] = test system: palmer (palmer amaranth, palmer pigweed, Amaranthus palmeri); experiment: as above; conditions: 10 days
Outline: as §1

[8] = test system: ragweed (common ragweed, Ambrosia artemisiifolia); experiment: as above; conditions: 10 days
Outline: as §1

[9] = test system: ryegrass, Italian (italian ryegrass, Lolium multiflorum); experiment: as above; conditions: 10 days
Outline: as §1

[10] = test system: soybean (Glycine max); experiment: as above; conditions: 10 days
Outline: as §1

[11] = test system: wheat (Triticum aestivum); experiment: as above; conditions: 10 days
Outline: as §1

[12] = test system: barnyardgrass (Echinochloa crus-galli); experiment: Test A postemergence application, visual injury rating 0-100
Outline: as §1

[13] = test system: blackgrass (Alopecurus myosuroides); experiment: as above
Outline: as §1

[14] = test system: corn (Zea mays); experiment: as above
Outline: as §1

[15] = test system: galium (catchweed bedstraw, Galium aparine); experiment: as above
Outline: as §1

[16] = test system: green foxtail (Setaria viridis); experiment: as above
Outline: as §1

[17] = test system: horseweed (Erigeron canadensis); experiment: as above
Outline: as §1

[18] = test system: kochia (Bassia scoparia); experiment: as above
Outline: as §1

[19] = test system: oat, wild (wild oat, Avena fatua); experiment: as above
Outline: as §1

[20] = test system: palmer (palmer amaranth, palmer pigweed, Amaranthus palmeri); experiment: as above
Outline: as §1

[21] = test system: ragweed (common ragweed, Ambrosia artemisiifolia); experiment: as above
Outline: as §1

[22] = test system: ryegrass, Italian (italian ryegrass, Lolium multiflorum); experiment: as above
Outline: as §1

[23] = test system: soybean (Glycine max); experiment: as above
Outline: as §1

[24] = test system: wheat (Triticum aestivum); experiment: as above
Outline: as §1

[25] = test system: barnyardgrass (Echinochloa crusgalli); experiment: Test B flooded paddy test, visual plant response rating 0-100; conditions: 250 g ai/ha, Flood, applied to paddy water, evaluated after 13 days
Outline: (§2)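 Plants were grown to the 2-leaf stage, then pots were flooded to 3 cm above the soil and compound was applied directly to the paddy water, with that depth kept throughout.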

[26] = test system: ducksalad (Heteranthera limosa); experiment: as above; conditions: 250 g ai/ha, Flood, applied to paddy water, evaluated after 13 days
Outline: as §2

[27] = test system: rice (Oryza sativa); experiment: as above; conditions: 250 g ai/ha, Flood, applied to paddy water, evaluated after 13 days
Outline: as §2

[28] = test system: sedge, umbrella (small-flower umbrella sedge, Cyperus difformis); experiment: as above; conditions: 250 g ai/ha, Flood, applied to paddy water, evaluated after 13 days
Outline: as §2

[29] = 62 g ai/ha, 0 = no effect, 100 = complete control
[30] = 62 g ai/ha, postemergence, 10 days, 0 = no effect, 100 = complete control
[31] = Postemergence, 16 g ai/ha, greenhouse 10 days, 0 no effect, 100 complete control

SMILES: CC1(C(=O)NC2CC(C(=O)OCC(F)(F)F)C2)CN(c2cc(F)cc(F)c2)C(=O)O1 (stereo not shown) [Compound 121]
- Barnyardgrass plant response rating ([1]; 16 g ai/ha, 0 to 100 scale): 0
- Barnyardgrass plant response rating (0-100) [1, 29]: 80
- Blackgrass plant response rating ([2]; 16 g ai/ha, 0 to 100 scale): 50
- Blackgrass plant response rating (0-100) [2, 29]: 90
- Corn plant response rating ([3]; 16 g ai/ha, 0 to 100 scale): 20
- Corn plant response rating (0-100) [3, 29]: 90
- Foxtail, Green plant response rating ([4]; 16 g ai/ha, 0 to 100 scale): 0
- Foxtail, Green plant response rating (0-100) [4, 29]: 90
- Kochia plant response rating ([5]; 16 g ai/ha, 0 to 100 scale): 0
- Kochia plant response rating (0-100) [5, 29]: 70
- Oat, Wild plant response rating ([6]; 16 g ai/ha, 0 to 100 scale): 90
- Oat, Wild plant response rating (0-100) [6, 29]: 90
- Pigweed, Palmer plant response rating ([7]; 16 g ai/ha, 0 to 100 scale): 0
- Pigweed, Palmer plant response rating (0-100) [7, 29]: 70
- Ragweed plant response rating ([8]; 16 g ai/ha, 0 to 100 scale): 0
- Ragweed plant response rating (0-100) [8, 29]: 0
- Ryegrass, Italian plant response rating ([9]; 16 g ai/ha, 0 to 100 scale): 50
- Ryegrass, Italian plant response rating (0-100) [9, 29]: 90
- Soybean plant response rating ([10]; 16 g ai/ha, 0 to 100 scale): 0
- Soybean plant response rating (0-100) [10, 29]: 0
- Wheat plant response rating ([11]; 16 g ai/ha, 0 to 100 scale): 40
- Wheat plant response rating (0-100) [11, 29]: 80
- Barnyardgrass plant response rating (0-100) [12, 30]: 100
- Barnyardgrass plant response rating (0 to 100 scale) [12, 31]: 60
- Blackgrass plant response rating (0-100) [13, 30]: 100
- Blackgrass plant response rating (0 to 100 scale) [13, 31]: 90
- Corn plant response rating (0-100) [14, 30]: 100
- Corn plant response rating (0 to 100 scale) [14, 31]: 100
- Galium plant response rating (0-100) [15, 30]: 60
- Galium plant response rating (0 to 100 scale) [15, 31]: 30
- Foxtail, Green plant response rating (0-100) [16, 30]: 90
- Foxtail, Green plant response rating (0 to 100 scale) [16, 31]: 70
- Horseweed plant response rating (0-100) [17, 30]: 10
- Horseweed plant response rating (0 to 100 scale) [17, 31]: 0
- Kochia plant response rating (0-100) [18, 30]: 70
- Kochia plant response rating (0 to 100 scale) [18, 31]: 10
- Oat, Wild plant response rating (0-100) [19, 30]: 90
- Oat, Wild plant response rating (0 to 100 scale) [19, 31]: 40
- Pigweed, Palmer plant response rating (0-100) [20, 30]: 70
- Pigweed, Palmer plant response rating (0 to 100 scale) [20, 31]: 0
- Ragweed plant response rating (0-100) [21, 30]: 0
- Ragweed plant response rating (0 to 100 scale) [21, 31]: 0
- Ryegrass, Italian plant response rating (0-100) [22, 30]: 70
- Ryegrass, Italian plant response rating (0 to 100 scale) [22, 31]: 20
- Soybean plant response rating (0-100) [23, 30]: 70
- Soybean plant response rating (0 to 100 scale) [23, 31]: 50
- Wheat plant response rating (0-100) [24, 30]: 90
- Wheat plant response rating (0 to 100 scale) [24, 31]: 90
- Plant response rating, Barnyardgrass (0 to 100 scale, 0 is no effect and 100 is complete control) [25]: 0
- Plant response rating, Ducksalad (0 to 100 scale, 0 is no effect and 100 is complete control) [26]: 0
- Plant response rating, Rice (0 to 100 scale, 0 is no effect and 100 is complete control) [27]: 0
- Plant response rating, Sedge, Umbrella (0 to 100 scale, 0 is no effect and 100 is complete control) [28]: 0
